What all share (experiment): NCI tumour cell line growth inhibition, 48 h
Assay [1] deals with SF-539.
Assay [2] concerns MDA-N.
The test system of assay [3] is OVCAR-8.
Assay [4] concerns SN12C.
Assay [5] relates to SK-MEL-28.
The test system of assay [6] is Malme-3M.
Assay [7] relates to SK-MEL-2.
Assay [8] relates to KM-20L2.
In assay [9] the test system is SF-268.
For assay [10], the system named is HT-29.
Assay [11] has as its system 786-0.
Assay [12] deals with HL-60.
The test system of assay [13] is KM12.
Assay [14] deals with MDA-MB-435.
The test system of assay [15] is RPMI-8226.
Assay [16] deals with ACHN.
For assay [17], the system named is HOP-92.
Assay [18] deals with MOLT-4.
Assay [19] concerns IGROV-1.
Assay [20] has as its system TK-10.

The structures appear in SMILES notation.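 Interpolation was linear, between the two tested concentrations surrounding the appropriate level; five concentrations were tested over 48 hours in 96-well plates. GI50 is the concentration that inhibits growth by half.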 Activity calls are given as the source filed them. Cut-off read from the data, not from the text of the source: active = GI50 up to about 1.1 µM and inactive = higher. Where only a bound is given, the exact number is not on record here.

As for `C=C1C(=O)OC2/C=C(\COC(C)=O)CCC(OC(C)=O)C3=CC(OC3=O)C12` (stereo not given), the GI50 in assay [1] was 6.64 µM (inactive); in [2], > 10 µM (inactive); in [3], 3.31 µM (inactive); in assay [4], 8.87 µM (inactive); in assay [5], 3.99 µM (inactive); in [6] it was 2.15 µM (inactive). For the same compound, the GI50 is 6.46 µM (inactive) in [7]; 6.98 µM (inactive) in assay [8]; 22.3 µM (inactive) in assay [9]; 3.9 µM (inactive) in assay [10]; 6.56 µM (inactive) in assay [11]; 2.23 µM (inactive) in [12]. Further, the GI50 is 12.7 µM (inactive) in assay [13]; 10.6 µM (inactive) in assay [14]; 3.53 µM (inactive) in assay [15]; 3.12 µM (inactive) in [16]; 3.49 µM (inactive) in assay [17]; 1.58 µM (inactive) in assay [18]. Besides, the GI50 was 23.8 µM (inactive) in assay [19] and 5.28 µM (inactive) in assay [20].
For the compound `Cc1c(C)c(CC(=O)N2CC2)c(C)c(C)c1CC(=O)N1CC1`, the GI50 in assay [1] is 3.52 µM (inactive); in assay [2], 13.8 µM (inactive); in assay [3], 10.2 µM (inactive); in [4], 4.03 µM (inactive); in assay [5] it was 17 µM (inactive); in assay [6], 12.1 µM (inactive). Moreover, the GI50 is 16 µM (inactive) in assay [7]; 17.3 µM (inactive) in [8]; 2.41 µM (inactive) in assay [9]; 6.93 µM (inactive) in assay [10]; 3.56 µM (inactive) in assay [11]; 0.705 µM (active) in [12]. Besides, the GI50 is 17.1 µM (inactive) in [13]; 16 µM (inactive) in assay [14]; 10.6 µM (inactive) in assay [15]; 1.43 µM (inactive) in assay [16]; 9.48 µM (inactive) in [17]; 0.441 µM (active) in assay [18]. The GI50 is 17.1 µM (inactive) in assay [19] and 25.9 µM (inactive) in [20].
For the compound `COc1c(OC(C)=O)c(OC(C)=O)cc2c1-c1ccc(SC)c(=O)cc1C(NC(C)=O)CC2` (stereo not given), the GI50 in [1] is 0.254 µM (active); in assay [2], 0.163 µM (active); in [3], 1.49 µM (inactive); in assay [4] it was 0.993 µM (active); in [5] it was 0.342 µM (active); in assay [6], 0.468 µM (active). In addition, the GI50 in assay [7] is 0.31 µM (active); in assay [8] it was 0.7 µM (active); in [9], 0.472 µM (active); in assay [10] it was 0.461 µM (active); in [11], 1.69 µM (inactive); in [12] it was 0.208 µM (active). The GI50 in assay [13] is 0.504 µM (active); in [14], 0.179 µM (active); in assay [15], 0.416 µM (active); in assay [16], 11.6 µM (inactive); in assay [17], 0.425 µM (active); in assay [18], 0.968 µM (active). Further, the figures for the GI50 in [19] and in assay [20] were 0.933 µM (active) and 15.3 µM (inactive), respectively.
For `COc1cc(/C=C(\C#N)C(N)=C(C#N)C#N)cc(O)c1O`, the GI50 was > 100 µM (inactive) in [1]; 68.2 µM (inactive) in [2]; 91.2 µM (inactive) in [3]; > 36 µM (inactive) in assay [4]; > 100 µM (inactive) in [5]; > 100 µM (inactive) in [6]. The GI50 is > 100 µM (inactive) in assay [7]; > 100 µM (inactive) in assay [8]; > 87.9 µM (inactive) in assay [9]; > 83.9 µM (inactive) in [10]; > 100 µM (inactive) in assay [11]; 26.9 µM (inactive) in [12]. For the same compound, the GI50 in assay [13] is > 84.3 µM (inactive); in assay [14] it was 59.3 µM (inactive); in assay [15], > 100 µM (inactive); in assay [16], > 100 µM (inactive); in assay [17], > 68.4 µM (inactive); in assay [18], 55.2 µM (inactive). The GI50 in assay [19] was > 66.8 µM (inactive); in assay [20], > 100 µM (inactive).

The values are drawn from ChEMBL document CHEMBL1201862, “PubChem BioAssay data set” (2004).
